According to patent publication US4146631A, “Benzamide derivatives” (May & Baker Limited, priority 1976, dated 1979):

Assays:
[1] = test system: passive cutaneous anaphylactic (PCA) reaction; test: Passive cutaneous anaphylactic (PCA) reaction, reagin-allergen combination, in rats; assay type: in vivo; details: Rattus norvegicus; for ED100: intravenous, just before injection of allergen, read-out: ED100 (intravenous dose which produces 100% inhibition of the PCA reaction); for inhibition in vivo at 100 mg/kg: oral dose of 100 mg/kg; for inhibition in vivo at 100 mg/kg / ED50: thirty minutes before intravenous allergen; for ED50: oral, read-out: ED50 (oral dose which produces 50% inhibition of the PCA reaction)
Text: In pharmacological tests the benzamide derivatives of general formula I suppress the passive cutaneous anaphylactic (PCA) reaction resulting from combination of tissue-fixed reaginic antibodies with the appropriate antigenic material (termed reagin-allergen combination) and carried out in an essentially similar manner to that described by Ogilvie [Nature (Lond.), (1964), 204, 91-92; Immunology, (1967), 12, 112-131]. In the method used to test these compounds sera were obtained from rats which had been infected with larvae of the nematode parasite Nippostrongylus brasiliensis; as a result of the parasitic infestation reaginic antibodies are elaborated in the host mammal and are found in sera removed from such animals. Other, non-infected, rats received intradermal injections of appropriate dilutions of such sera and were then given the allergenic material along with Evans' blue dye intravenously forty-eight hours later.
The allergenic material consisted of supernatant fluid after centrifugation of homogenates of adult Nippostrongylus brasiliensis worms which had been macerated in Tyrode's solution. The sites of PCA reactions were visualised by the effusion of Evan's blue dye from the circulation into those areas as a result of increased capillary permeability caused by the release of biologically-active substances from cells where reagin-allergen combination had occurred. The new compounds when given intravenously to the rats just before injection of allergen, or administered orally thirty minutes before intravenous injection of allergen, were able to prevent the development of the PCA reaction, as shown below in Table I, Table II and Table III.

[2] = Acute oral toxicity in mice; details: mouse, in vivo, highest dose used 1000 mg/kg, read-out: LD50 (doses lethal to 50% of mice tested)
Text: Mice were each treated orally with one of the compounds of formula I, and they were observed daily until there had been at least 3 consecutive days without any deaths. The LD50 figures obtained (doses lethal to 50% of mice tested) are shown below in Table IV, expressed in mg/kg animal body weight.
The symbol ">" means "greater than" in this specification. Where the LD50 is said to be ">1000," a more precise estimation of the LD50 was not possible because the numbers of deaths was too small, even at the highest dose used, 1000 mg/kg.

[3] = Acute intravenous toxicity in mice; details: mouse, in vivo
Text: Mice were each treated intravenously with an aqueous solution of the triethanolamine salt or sodium salt of one of the compounds of formula I, and they were observed until there had been at least 3 consecutive days without any deaths. The LD50 figures obtained (doses lethal to 50% of mice tested) are shown below in Table V, expressed in mg/kg animal body weight. In Table V, "Na" means that the sodium salt was used and "T" means that the triethanolamine salt was used.
The aqueous solutions were prepared as follows:
A mixture of the test compound and water was treated gradually with triethanolamine until complete solution occurred. The solution was then diluted with water to a concentration of test compound of either 1% w/v or 2% w/v.
The test compound was dissolved in aqueous sodium hydroxide (1N) and the solution was brought to pH 8 by treatment with hydrochloric acid. The solution was then diluted with water to a concentration of test compound of 2% w/v.
Various volumes of these solutions were then administered to the mice.

[4] = triethanolamine salt (T), 2% w/v test solution

| SMILES | ED100 [1] | LD50 [2] | LD50 ([3]; triethanolamine salt (T), 1% w/v test solution) | inhibition in vivo at 100 mg/kg [1] | ED50 [1] | LD50 [3, 4] | LD50 ([3]; sodium salt (Na), 2% w/v test solution) | LD50 ([3]; triethanolamine salt (T), 1% w/v solution for lower doses, 2% w/v for higher doses) |
| --- | --- | --- | --- | --- | --- | --- | --- | --- |
| O=C(Nc1nnn[nH]1)c1cc(-c2ccccc2)ccc1O [BG, 2-hydroxy-5-phenyl-N-(tetrazol-5-yl)benzamide] | 10 mg/kg | > 1000 mg/kg | 200 mg/kg |  |  |  |  |  |
| CC(=O)c1cc(C(C)(C)C)cc(C(=O)Nc2nnn[nH]2)c1O [Compound BZ, 3-acetyl-5-tert-butyl-2-hydroxy-N-(tetrazol-5-yl)benzamide] | 0.5 mg/kg | > 1000 mg/kg |  | 59% | 2.6 mg/kg | 240 mg/kg |  |  |
| COc1cccc(C(=O)Nc2nnn[nH]2)c1O [Compound BE, 2-hydroxy-3-methoxy-N-(tetrazol-5-yl)benzamide] | 0.2 mg/kg | > 1000 mg/kg |  | 62% | 18 mg/kg | 580 mg/kg |  |  |
| CCc1cc(C(C)=O)c(O)c(C(=O)Nc2nnn[nH]2)c1 [BW, 3-acetyl-5-ethyl-2-hydroxy-N-(tetrazol-5-yl)benzamide] | 0.1 mg/kg | > 1000 mg/kg |  | 51% | 0.1 mg/kg |  | 320 mg/kg |  |
| O=C(Nc1nnn[nH]1)c1cccc(Br)c1O [Compound AL, 3-bromo-2-hydroxy-N-(tetrazol-5-yl)benzamide] | 10 mg/kg | 794 mg/kg |  | 69% | 55 mg/kg | 540 mg/kg |  |  |
| O=C(Nc1nnn[nH]1)c1cc([N+](=O)[O-])cc([N+](=O)[O-])c1O [Compound AE, 2-hydroxy-3,5-dinitro-N-(tetrazol-5-yl)benzamide] | 0.05 mg/kg | > 1000 mg/kg |  | 80% | 0.1 to 0.45 mg/kg | 490 mg/kg |  |  |
| O=C(Nc1nnn[nH]1)c1cccc([N+](=O)[O-])c1O [AI, 2-hydroxy-3-nitro-N-(tetrazol-5-yl)benzamide] | 0.5 mg/kg | > 1000 mg/kg |  | 68% | 5 to 30 mg/kg | > 1000 mg/kg |  |  |
| N#Cc1cccc(C(=O)Nc2nnn[nH]2)c1O [CJ, 3-cyano-2-hydroxy-N-(tetrazol-5-yl)benzamide] | 0.5 mg/kg | > 1000 mg/kg |  | 50% | 37 mg/kg | > 1000 mg/kg |  |  |
| CCCOc1cccc(C(=O)Nc2nnn[nH]2)c1O [Compound AN, 2-hydroxy-3-propoxy-N-(tetrazol-5-yl)benzamide] | 0.5 mg/kg | > 1000 mg/kg |  | 87% | 40 mg/kg | 480 mg/kg |  |  |
| CCC(=O)c1cc(C)cc(C(=O)Nc2nnn[nH]2)c1O [CE, 2-hydroxy-5-methyl-3-propionyl-N-(tetrazol-5-yl)benzamide] | 0.05 mg/kg | > 1000 mg/kg |  | 99% | 0.4 mg/kg | 270 mg/kg |  |  |
| CC(=O)c1cccc(C(=O)Nc2nnn[nH]2)c1O [CA, 3-acetyl-2-hydroxy-N-(tetrazol-5-yl)benzamide] | 0.1 mg/kg | > 1000 mg/kg |  | 64% |  | 500 mg/kg |  |  |
| O=C(Nc1nnn[nH]1)c1cc(F)ccc1O [Compound BH, 5-fluoro-2-hydroxy-N-(tetrazol-5-yl)benzamide] | 1 mg/kg | > 1000 mg/kg |  | 94% | 16 mg/kg |  |  | 500 mg/kg |
| CCOc1cccc(C(=O)Nc2nnn[nH]2)c1O [AS, 3-ethoxy-2-hydroxy-N-(tetrazol-5-yl)benzamide] | 1 mg/kg | > 1000 mg/kg |  | 76% | 10 mg/kg | 560 mg/kg |  |  |
| CC(=O)c1cc(C)cc(C(=O)Nc2nnn[nH]2)c1O [AR, 3-acetyl-2-hydroxy-5-methyl-N-(tetrazol-5-yl)benzamide] | 0.1 mg/kg | > 1000 mg/kg |  | 42% | 0.75 mg/kg | 430 mg/kg |  |  |
| CC(=O)c1cc(C(=O)Nc2nnn[nH]2)c(O)c([N+](=O)[O-])c1 [CQ, 5-acetyl-2-hydroxy-3-nitro-N-(tetrazol-5-yl)benzamide] | 0.2 mg/kg | > 1000 mg/kg |  | 56% |  | 890 mg/kg |  |  |
